Experimental data from patent US7169574B2, “Fluorescence detection of proteases or peptidases” (Institut National de la Sante et de la Recherche Medicale …, priority 2000, dated 2007).
Values joined by “and” are separate entries in the source; they are usually repeats but may differ in a detail not shown here. Identical values can stand only once. Numbered stars: 1 amine (or outer) side, 2 acyl side, 3 side chain; on linkers, the order of the positions; unused ones are H or OH. Square brackets hold non-standard residues; d marks the D form. Primed or numbered codes have the meaning given here. Ends that are not written are not given here. PyA″ = pyrenylalanine, O=C([C@H](Cc1ccc2ccc3cccc4ccc1c2c34)N[*:1])[*:2]; Phe(4-NO2) = N[C@@H](Cc1ccc([N+](=O)[O-])cc1)C(=O)O

What was measured:
ECE [1] = target: T1, ECE (Homo sapiens, UniProt P42892); test: ECE inhibition test, fluorescence reading on 96-well microplate (Examples 3 and 4); assay type: biochemical; conditions: for fluorescence intensity measured for each well: excitation 340 nm, emission 400 nm, gain 85, low value = strong inhibition, blank 67/68, control 1081/1094
T1 construct: made in house; host or cells: Cos-1 cells or CHO cells
T1 sequence (P42892 1-754 isoform P42892-3): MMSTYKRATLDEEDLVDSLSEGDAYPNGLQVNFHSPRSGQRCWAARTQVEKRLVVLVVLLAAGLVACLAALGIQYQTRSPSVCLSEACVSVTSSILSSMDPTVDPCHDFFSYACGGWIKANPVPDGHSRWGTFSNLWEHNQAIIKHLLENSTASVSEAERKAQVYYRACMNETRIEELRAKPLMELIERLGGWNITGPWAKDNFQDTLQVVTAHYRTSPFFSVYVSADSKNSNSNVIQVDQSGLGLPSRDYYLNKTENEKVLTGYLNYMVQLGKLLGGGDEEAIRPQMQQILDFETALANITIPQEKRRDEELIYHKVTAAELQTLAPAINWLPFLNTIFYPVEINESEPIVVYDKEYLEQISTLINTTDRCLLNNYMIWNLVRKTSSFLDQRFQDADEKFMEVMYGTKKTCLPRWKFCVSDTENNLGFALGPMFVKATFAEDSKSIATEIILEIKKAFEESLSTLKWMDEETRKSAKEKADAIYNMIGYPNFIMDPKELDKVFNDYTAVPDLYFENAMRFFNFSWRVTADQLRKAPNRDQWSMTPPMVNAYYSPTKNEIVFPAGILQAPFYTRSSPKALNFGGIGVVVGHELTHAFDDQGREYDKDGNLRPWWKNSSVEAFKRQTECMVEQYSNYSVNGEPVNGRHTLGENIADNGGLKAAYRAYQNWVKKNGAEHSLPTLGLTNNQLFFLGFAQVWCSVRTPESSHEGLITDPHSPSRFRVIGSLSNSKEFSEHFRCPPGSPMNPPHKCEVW
Description: 100 μl of 50 mM Tris-maleate buffer, pH 6.5, 20 μM or 5 μM of fluorescent peptide 1s or 2s and 10 μl of a solution of ECE diluted as a function of its purity and such that the cleavage of the fluorescent substrate remains less than 5%. […] The reaction is stopped in various ways, for example heating to 90° C., abrupt cooling to 4° C., adding an organic solvent such as dioxane to 20% of the final volume, and then the reading is performed using a fluorimeter (λex=340 nm; λem=400 nm) optionally coupled to the automated analysis system. […] The controls are performed in the presence of all the reagents but without ECE or with ECE inactivated beforehand by heating at 90° C. for 5 minutes.
The inhibitory behavior of several compounds was assessed by reproducing the protocol described in Example 2.
The specific conditions selected for the assays appear below:
Preincubation is carried out for 10 minutes at 37° C. The ECE substrate is then added at an amount of 10 μM. The entire mixture is incubated for between 20 minutes and 1 hour at 37C and the reaction is then stopped either by cooling or by adding dioxane (20 μl).
The reading on cytofluor is performed at 4° C. with the following specificities: excitation 340 nm, emission 400 nm and with a gain of 85.
The assays are performed on a 96-well microplate.
The compounds were tested at two concentrations.

[2] = Stability of the fluorescence of the metabolites formed by ECE; assay type: physicochemical
Source text: The measurement of this intensity, related to a standard curve established with mixtures of the substrate and of the fluorescent metabolite formed, therefore makes it possible either to evaluate the inhibitory capacity as percentage inhibition at a set given concentration of the product P, or to precisely determine its IC50 and then its KI using the Km of the substrate and several concentrations of the product P. The extreme sensitivity of the assay makes it possible to operate in very small volumes (100 μl) with concentrations of the order of 20 μM of the substrate 1s (that is to say 2 nmole corresponding to 4.43 μg per assay) or 5 μM of the substrate 2s. The test can therefore be very easily used in 96 wells plates or more, making it possible to automate it with automatic determination of the KI values when the reading fluorimeter is connected to a computer having suitable commercial software.

ECE [3] = target: T1, ECE; test: HPLC analysis of products formed on incubation with ECE; assay type: biochemical; conditions: single cleavage at the PyA-pNF peptide bond
Description: With regard to the products formed, the analysis thereof was carried out, in order to verify the substrate selectivity, by HPLC on a nucleosil C18 column, 7 μm/300 Å (4.6×70 mm), using a buffer B (0.038% of TFA in CH3CN/H2O, 9/1 by vol.) and a gradient of 40–47% of buffer B in 10 minutes (flow rate 1 ml/min).

[4] = target: T2, endothelin-converting enzyme (ECE) (Homo sapiens, UniProt P42892); test: Fluorimetric ECE activity assay with fluorescent peptide substrates (96-well plates); assay type: biochemical; conditions: 50 mM Tris-maleate buffer, pH 6.5; calculated using the ENZFITTER program; read-out: Km (affinity constant of the enzyme for a substrate)
T2 construct: made in house; host or cells: Cos-1 cells or CHO cells
T2 sequence (P42892 1-754 isoform P42892-3): T1 sequence (P42892 1-754 isoform P42892-3)
Description: Various preparations containing ECE can be used, such as, for example, recombinant human ECE-1c expressed in Cos-1 cells (Shimada et al., J. Biol. Chem. (1994) 269, 18275–18278) or CHO cells (Xu et al. Cell (1994) 78, 473–485).
In all cases, the presence of the enzyme is tested by Western blotting using an antibody and its concentration is evaluated by comparison with the purified enzyme.
The ECE activity is determined in 96-well plates, generally under the following conditions:
100 μl of 50 mM Tris-maleate buffer, pH 6.5, 20 μM or 5 μM of fluorescent peptide 1s or 2s and 10 μl of a solution of ECE diluted as a function of its purity and such that the cleavage of the fluorescent substrate remains less than 5%. […] The reaction is stopped in various ways, for example heating to 90° C., abrupt cooling to 4° C., adding an organic solvent such as dioxane to 20% of the final volume, and then the reading is performed using a fluorimeter (λex=340 nm; λem=400 nm) optionally coupled to the automated analysis system. The use of a network fluorimeter considerably further increases the sensitivity of the assay by reading the fluorescence at 377 nm. […]
The KI values for the inhibitors can be determined automatically using the degradation percentages at various concentrations and comparison with a standard range. […]

C[C@H](CS)C(=O)N1CCC[C@H]1C(=O)O [C, captopril]
fluorescence intensity measured for each well (ECE [1]; compound at 5 × 10^−6 M): 1128 and 1121 | fluorescence intensity measured for each well (ECE [1]; compound at 10^−6 M): 1086 and 1089

NCCCC[C@H](N[C@@H](CCc1ccccc1)C(=O)O)C(=O)N1CCC[C@H]1C(=O)O [L, lysinopril]
fluorescence intensity measured for each well (ECE [1]; compound at 5 × 10^−6 M): 1095 and 1119 | fluorescence intensity measured for each well (ECE [1]; compound at 10^−6 M): 1117 and 1093

CC(C)C[C@H](NP(=O)(O)O[C@@H]1O[C@@H](C)[C@H](O)[C@@H](O)[C@H]1O)C(=O)N[C@@H](Cc1c[nH]c2ccccc12)C(=O)O [P, phosphoramidon]
inhibitory behavior on ECE (ECE [1]; Table II, 10^−6 M and 5 × 10^−6 M): entirely verified | fluorescence intensity measured for each well (ECE [1]; compound at 5 × 10^−6 M): 140 and 133 | fluorescence intensity measured for each well (ECE [1]; compound at 10^−6 M): 455 and 459

O=C(O)CC(=O)NC(CS)Cc1ccccc1 (centres unmarked) [R, retrothiorphan]
fluorescence intensity measured for each well (ECE [1]; compound at 5 × 10^−6 M): 1043 and 1077 | fluorescence intensity measured for each well (ECE [1]; compound at 10^−6 M): 1124 and 1106

O=C(O)CNC(=O)C(CS)Cc1ccccc1 (centres unmarked) [T, thiorphan]
fluorescence intensity measured for each well (ECE [1]; compound at 5 × 10^−6 M): 1109 and 1121 | fluorescence intensity measured for each well (ECE [1]; compound at 10^−6 M): 1124 and 1127

Ac-Arg-Pro-Lys-Gln-Glu-PyA [peptide 2m]
fluorescence of the metabolite over time [2]: not modified over several hours

Ac-Ile-Ile-PyA (Ac-Ile-Ile-[PyA″]) [peptide 1m, fluorescent metabolite of 1s formed by ECE]
fluorescence of the metabolite over time [2]: not modified over several hours

Ac-Ile-Ile-PyA-pNF-Asn-Thr-Pro-Glu-His-Val-Val-Pro-Tyr-Gly-Leu-Gly-Ser-COOH (Ac-II[PyA″][Phe(4-NO2)]NTPEHVVPYGLGS-OH; SMILES CC[C@H](C)[C@H](NC(C)=O)C(=O)N[C@H](C(=O)N[C@@H](Cc1ccc2ccc3cccc4ccc1c2c34)C(=O)N[C@@H](Cc1ccc([N+](=O)[O-])cc1)C(=O)N[C@@H](CC(N)=O)C(=O)N[C@H](C(=O)N1CCC[C@H]1C(=O)N[C@@H](CCC(=O)O)C(=O)N[C@@H](Cc1c[nH]cn1)C(=O)N[C@H](C(=O)N[C@H](C(=O)N1CCC[C@H]1C(=O)N[C@@H](Cc1ccc(O)cc1)C(=O)NCC(=O)N[C@@H](CC(C)C)C(=O)NCC(=O)N[C@@H](CO)C(=O)O)C(C)C)C(C)C)[C@@H](C)O)[C@@H](C)CC) [peptide 1s, fluorogenic ECE substrate]
metabolites produced when incubated with ECE (ECE [3]): only two metabolites | Km [4]: 22.1 ± 0.9 µM

Ac-Ser-Gly-PyA-Lys-Ala (Ac-SG[PyA″]KA) [peptide 3m, fluorescent metabolite of 3s formed by ECE]
fluorescence of the metabolite over time [2]: not modified over several hours

Ac-Ser-Gly-PyA-Lys-Ala-Phe-Ala-pNF-Gly-Lys NH2 (Ac-SG[PyA″]KAFA[Phe(4-NO2)]GK-NH2; SMILES CC(=O)N[C@@H](CO)C(=O)NCC(=O)N[C@@H](Cc1ccc2ccc3cccc4ccc1c2c34)C(=O)N[C@@H](CCCCN)C(=O)N[C@@H](C)C(=O)N[C@@H](Cc1ccccc1)C(=O)N[C@@H](C)C(=O)N[C@@H](Cc1ccc([N+](=O)[O-])cc1)C(=O)NCC(=O)N[C@@H](CCCCN)C(N)=O) [peptide 3s, fluorogenic ECE substrate]
metabolites produced when incubated with ECE (ECE [3]): only two metabolites
